From publication PMC5080911 (Journal of medicinal chemistry, 2016)
Like-named read-outs stand apart in the source and are kept apart here.

Tests used:
tubulin = assay: Tubulin polymerization assay; details: for time to reach maximum/plateau of tubulin polymerization / effect on tubulin polymerization: 3 µM; for time to reach maximum/plateau of tubulin polymerization: 37 °C, monitored 1 h; for tubulin polymerization effect of irradiated sample: sample irradiated with far-red light; for effect on tubulin polymerization: not irradiated
SKOV-3 cells = assay: Stability of prodrugs with the SKOV-3 cells in the dark; format: in vitro ADME; details: 500 nM, 3 day incubation with SKOV-3 cells
[1] = Solubility in aqueous medium; format: physicochemical; details: qualitative
[2] = format: physicochemical; details: 10 µM in DMEM with 5% FCS, 690 nm
[3] = Stability of prodrugs in the complete medium under dark conditions; format: physicochemical; details: 37 °C, 10 µM, 96 h
[4] = 5.6 mW/cm^2, illumination 30 min

SMILES	time to reach maximum/plateau of tubulin polymerization (tubulin)	tubulin polymerization effect of irradiated sample (tubulin)	reduction of recovered prodrug (cells + culture medium) (SKOV-3 cells) [%]	solubility in aqueous medium [1]	PTX released from the prodrug [2, 4]	PTX released from the prodrug ([2]; 5.6 mW/cm^2, illumination 10 min)	decrease (loss) of prodrug in complete medium [3]	effect on tubulin polymerization (tubulin)
CC(=O)O[C@H]1C(=O)[C@@]2(C)[C@H](O)C[C@@H]3OC[C@]3(OC(C)=O)[C@@H]2[C@@H](OC(=O)c2ccccc2)[C@]2(O)C[C@@H](OC(=O)[C@@H](OC(=O)CCC(=O)N3CCN(CCO[Si]4(OCCN5CCN(C(=O)CCC(=O)O[C@@H](C(=O)O[C@@H]6C[C@@]7(O)[C@H](OC(=O)c8ccccc8)[C@H]8[C@@]9(OC(C)=O)CO[C@H]9C[C@@H](O)[C@]8(C)C(=O)[C@H](OC(C)=O)C(=C6C)C7(C)C)[C@H](NC(=O)c6ccccc6)c6ccccc6)CC5)n5c6c7ccccc7c5/N=C5N=C(/N=c7/c8ccccc8/c(n74)=N/C4=NC(=N\6)/c6ccccc64)c4ccccc4\5)CC3)[C@H](NC(=O)c3ccccc3)c3ccccc3)C(C)=C1C2(C)C (stereo partly shown) [Compound 5]	~ 40 min	not much change	3.1	lower solubility in aqueous medium than 4	could not detect PTX			
CC(=O)O[C@H]1C(=O)[C@@]2(C)[C@H]([C@H](OC(=O)c3ccccc3)[C@]3(O)C[C@H](OC(=O)[C@H](OC(=O)/C=C/N4CCN(CCO[Si]5(OCCN6CCN(/C=C/C(=O)O[C@@H](C(=O)O[C@H]7C[C@@]8(O)[C@@H](OC(=O)c9ccccc9)[C@@H]9[C@]%10(OC(C)=O)CO[C@@H]%10C[C@H](O)[C@@]9(C)C(=O)[C@H](OC(C)=O)C(=C7C)C8(C)C)[C@@H](NC(=O)c7ccccc7)c7ccccc7)CC6)n6c7c8ccccc8c6/N=C6N=C(/N=c8/c9ccccc9/c(n85)=N/C5=NC(=N\7)/c7ccccc75)c5ccccc5\6)CC4)[C@@H](NC(=O)c4ccccc4)c4ccccc4)C(C)=C1C3(C)C)[C@]1(OC(C)=O)CO[C@@H]1C[C@@H]2O [Compound 4]	~ 40 min	significantly increased	4.9		~93%	about 83%	less than 7%	
COc1ccc(/C=C\c2cc(OC)c(OC)c(OC)c2)cc1O [CA4, Combretastatin A-4, reference compound]								almost completely prevented the polymerization
CC(=O)O[C@H]1C(=O)[C@@]2(C)[C@H]([C@H](OC(=O)c3ccccc3)[C@]3(O)C[C@H](OC(=O)[C@H](O)[C@@H](NC(=O)c4ccccc4)c4ccccc4)C(C)=C1C3(C)C)[C@]1(OC(C)=O)CO[C@@H]1C[C@@H]2O [PTX, Paclitaxel, reference compound]								the tubulin polymerization was rapid
